Laboratory results taken from PubChem BioAssay (NCI).
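48-hour exposure; five concentrations; linearly interpolated endpoints. Here, GI50 denotes the concentration required for 50% inhibition of growth. Definition used: TGI = concentration required for complete inhibition of growth.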

What was measured:
Assay in all cases: NCI tumour cell line growth inhibition, 48 h
[1] = tested on: SK-OV-3 ovarian
[2] = tested on: UACC-62 melanoma
[3] = tested on: HOP-62 NSCLC
[4] = tested on: MOLT-4 leukemia
[5] = tested on: OVCAR-5 ovarian
[6] = tested on: SK-MEL-2 melanoma
[7] = tested on: UO-31 renal
[8] = tested on: SK-MEL-28 melanoma
[9] = tested on: CCRF-CEM leukemia
[10] = tested on: SK-MEL-5 melanoma
[11] = tested on: KM12 colon
[12] = tested on: SW-620 colon
[13] = tested on: MCF7 breast
[14] = tested on: NCI-H23 lung
[15] = tested on: SNB-75 CNS
[16] = tested on: SNB-19 CNS
[17] = tested on: T-47D breast
[18] = tested on: SR leukemia
[19] = tested on: K-562 leukemia
[20] = tested on: HCT-15 colon
[21] = tested on: HCT-116 colon
[22] = tested on: NCI-H226 lung
[23] = tested on: MDA-MB-231 breast
[24] = tested on: HL-60(TB) leukemia
[25] = tested on: IGROV1 ovarian
[26] = tested on: CAKI-1 renal
[27] = tested on: SF-295 CNS
[28] = tested on: NCI-H460 lung
[29] = tested on: RXF 393 renal
[30] = tested on: MDA-MB-468 breast

Brc1ccc(N/N=C/c2c[nH]c3ccccc23)nc1
TGI [1]: > 100 µM
GI50 [2]: 37.3 µM
TGI [2]: > 100 µM
GI50 [3]: 11 µM
TGI [3]: 59.3 µM
GI50 [4]: 2.67 µM
TGI [4]: > 100 µM
GI50 [5]: > 100 µM
TGI [5]: > 100 µM
GI50 [6]: > 100 µM
TGI [6]: > 100 µM
GI50 [7]: 1.46 µM
TGI [7]: > 100 µM
GI50 [8]: > 100 µM
TGI [8]: > 100 µM
GI50 [9]: 0.839 µM
TGI [9]: > 100 µM
GI50 [10]: 25.6 µM
TGI [10]: > 100 µM
GI50 [11]: 3.68 µM
TGI [11]: > 100 µM
GI50 [12]: 76 µM
TGI [12]: > 100 µM
GI50 [13]: 2.43 µM
TGI [13]: > 100 µM
GI50 [14]: > 100 µM
TGI [14]: > 100 µM
GI50 [15]: 0.385 µM
TGI [15]: 97.9 µM
GI50 [16]: 11.4 µM
TGI [16]: 46.4 µM
GI50 [17]: 3.97 µM
TGI [17]: > 100 µM
GI50 [18]: 2.28 µM
TGI [18]: > 100 µM
GI50 [19]: 4.05 µM
TGI [19]: > 100 µM
GI50 [20]: 9.19 µM
TGI [20]: > 100 µM
GI50 [21]: 13.2 µM
TGI [21]: > 100 µM
GI50 [22]: 3.78 µM
TGI [22]: > 100 µM
GI50 [23]: 2.2 µM
TGI [23]: 8.47 µM
GI50 [24]: 2.81 µM
TGI [24]: > 100 µM
GI50 [25]: 1.63 µM
TGI [25]: > 100 µM
GI50 [26]: 4.35 µM
TGI [26]: > 100 µM
GI50 [27]: 19.1 µM
TGI [27]: > 100 µM
GI50 [28]: 14.1 µM
TGI [28]: > 100 µM
GI50 [29]: 2.5 µM
TGI [29]: 80.9 µM
GI50 [30]: 1.88 µM
TGI [30]: 6.1 µM
